Values quoted from earlier work in patent publication US20070026087A1 (priority 2003, published 2007).
Where two headings read alike, the source gives them in different places.

Key:
[1] = test system: SARS coronavirus
[2] = test system: HSV (herpes simplex virus)-1; details: Thurman & Gerba 1989
[3] = test system: HSV (herpes simplex virus)-2; details: Thurman & Gerba 1989
[4] = test system: Vacciniavirus; details: Thurman & Gerba 1989
[5] = test system: Adenovirus; details: Thurman & Gerba 1989
[6] = test system: VSV
[7] = test system: Poliovirus
[8] = test system: HVJ; details: Thurman & Gerba 1989
[9] = reported, effective only temporarily

Q: Which “efficacy as disinfectant against SARS coronavirus” value (from here on “efficacy as disinfectant”) [1, 9] does the source give for CCO [ethanol] here?
A: effective

Q: For C1CO1 [ethylene oxide gas, ethylene oxide], which “efficacy as disinfectant” value [1, 9] is on record?
A: effective

Q: With O=CCCCC=O [glutaraldehyde] as the compound, how does the “efficacy as disinfectant” value [1, 9] read?
A: effective

Q: For CC(=O)OO [peracetic acid], which “efficacy as disinfectant” value [1] is on record?
A: effective

Q: Which “efficacy against HSV-1” value [2] does the source give for O=[N+]([O-])[O-].[Ag+] [silver nitrate] here?
A: effective

Q: And the “efficacy against HSV-2” value [3]?
A: effective

Q: And the “efficacy against Vacciniavirus” value [4]?
A: not effective

Q: What about the “efficacy against Adenovirus” value [5] of the same compound?
A: not effective

Q: What about the “efficacy against VSV” value [6] of the same compound?
A: not effective

Q: And the “efficacy against Poliovirus” value [7]?
A: not effective

Q: What about the “efficacy against HVJ” value [8] of the same compound?
A: not effective

Q: Which “efficacy as disinfectant” value [1, 9] does the source give for OCl [sodium hypochlorite] here?
A: effective
